The text below walks through data of patent US9075014B2, “pH-responsive fluorescent false neurotransmitters and their use” (THE TRUSTEES OF COLUMBIA UNIVERSITY IN THE CITY OF NEW YORK, priority 2011, dated 2015).

“And” between values parts separate entries of the source, which are not always exact repeats. Equal entries are not always repeated. “Also recorded” adds a separate entry of the source.

Usually logD stands for the decadic logarithm of the distribution of all forms, ionised or not, between an organic phase and buffer at a given pH. A word on the pKa: it is the pH at which an ionisable group is half protonated.

A short description of data set [1]: log D by shake flask method (n-octanol / PBS pH 7.4). Format: physicochemical. The method, then:
The log D values were determined by traditional shake flask method. Each measurement was performed in duplicate as follows. First, 20 μM probe solution in 1 mL PBS (pH 7.4) was prepared to which 1 mL of n-octanol was added and mixed thoroughly. The mixture was kept in dark for 3 days for complete equilibrium, and the concentrations of probe in each layer were determined based on the UV absorbance. Log D values were determined based on the equation; log D=log [probe]oct−log [probe]PBS, where [probe]oct and [probe]PBS are the concentrations of the probe in n-octanol and PBS, respectively.

Data set [2] can be described thus: pKa from absorption spectra in PBS at different pH. In kind it is physicochemical. To be noted: from absorbance at λabs,max versus pH of PBS. How it is done: UV absorption spectra were taken by adding probe (2 μL of 10 mM stock solution in DMSO) to 998 μL of PBS buffer at different pH values (final probe conc.=20 μM) in quartz cuvette.
The pKa values of probes were determined from the absorption spectra.

A further data set deals with T1, VMAT2 (Rattus norvegicus, UniProt Q01827).
T1 construct: host or cells: HEK GnTI- (nonglycosylating) cells stably expressing VMAT2
Description: Fluorescent microscopy probe uptake assay in VMAT2/HEK cells. Format: cell-based. To be noted: 20 μM probe; for Uptake pattern in screening with VMAT2/HEK and HEK cells: 30 min, VMAT2/HEK vs HEK cells, with or without 1 μM TBZ or reserpine; for Probe uptake in VMAT2-HEK cells: 30 min incubation. The method, then:
HEK GNTI^− (nonglycosylating) cell line stably expressing VMAT2 (VMAT2-HEK) and HEK GNU^− cell line stably transected with TetR (HEK) to serve as a control were kindly provided by the laboratory of Robert Edwards at UCSF. Cells were grown in DMEM+Glutamax (Invitrogen #10569) with 10% fetal bovine serum (FBS) (Atlanta Biologicals), 100 U/ml penicillin (Nitrogen), and 100 μg/ml streptomycin (Invitrogen). […] The medium was removed by aspiration, and the cells were washed with PBS (2 mL per well). […] Then, the probe uptake was initiated by adding 0.1 mL of experimental media containing probe (220 μM, prepared from 10 mM stock solution in DMSO, final conc.=20 μM in the uptake assay). After incubating at 37° C. for 30 minutes, the media was removed by aspiration, and the cells were washed with PBS (2 mL per well) and treated with probe-free experimental media. Fluorescence images were taken by using Leica FW 4000 equipped with Chroma custom filter cube (ex=350/50 nm, em=460/50 nm) and Hamamatsu digital camera C4742-95. The fluorescent images and bright field images were acquired for 2000 ms and 37 ms, respectively. All images were adjusted using the same contrast and brightness level using Images J (National Institute of Health).

The subject of a further data set is HEK cells. Description: Fluorescent microscopy probe uptake in control (non-transfected) HEK cells. In kind it is cell-based, human. To be noted: 20 μM probe, 30 min incubation. The method, then: HEK GNTI^− (nonglycosylating) cell line stably expressing VMAT2 (VMAT2-HEK) and HEK GNU^− cell line stably transected with TetR (HEK) to serve as a control were kindly provided by the laboratory of Robert Edwards at UCSF. Cells were grown in DMEM+Glutamax (Invitrogen #10569) with 10% fetal bovine serum (FBS) (Atlanta Biologicals), 100 U/ml penicillin (Nitrogen), and 100 μg/ml streptomycin (Invitrogen). […] After 5 days, the cells looked fibroblastic and had reached ˜70% confluence. The medium was removed by aspiration, and the cells were washed with PBS (2 mL per well). […] Then, the probe uptake was initiated by adding 0.1 mL of experimental media containing probe (220 μM, prepared from 10 mM stock solution in DMSO, final conc.=20 μM in the uptake assay). After incubating at 37° C. for 30 minutes, the media was removed by aspiration, and the cells were washed with PBS (2 mL per well) and treated with probe-free experimental media. Fluorescence images were taken by using Leica FW 4000 equipped with Chroma custom filter cube (ex=350/50 nm, em=460/50 nm) and Hamamatsu digital camera C4742-95. The fluorescent images and bright field images were acquired for 2000 ms and 37 ms, respectively. All images were adjusted using the same contrast and brightness level using Images J (National Institute of Health).

The target in the next data set is T2, VMAT1 (Rattus norvegicus, UniProt Q01818).
T2 construct: PC-12 cells express mostly VMAT1 on their secretory large dense core vesicles (LDCVs); host or cells: PC-12 cells
T2 sequence (Q01818 1-521): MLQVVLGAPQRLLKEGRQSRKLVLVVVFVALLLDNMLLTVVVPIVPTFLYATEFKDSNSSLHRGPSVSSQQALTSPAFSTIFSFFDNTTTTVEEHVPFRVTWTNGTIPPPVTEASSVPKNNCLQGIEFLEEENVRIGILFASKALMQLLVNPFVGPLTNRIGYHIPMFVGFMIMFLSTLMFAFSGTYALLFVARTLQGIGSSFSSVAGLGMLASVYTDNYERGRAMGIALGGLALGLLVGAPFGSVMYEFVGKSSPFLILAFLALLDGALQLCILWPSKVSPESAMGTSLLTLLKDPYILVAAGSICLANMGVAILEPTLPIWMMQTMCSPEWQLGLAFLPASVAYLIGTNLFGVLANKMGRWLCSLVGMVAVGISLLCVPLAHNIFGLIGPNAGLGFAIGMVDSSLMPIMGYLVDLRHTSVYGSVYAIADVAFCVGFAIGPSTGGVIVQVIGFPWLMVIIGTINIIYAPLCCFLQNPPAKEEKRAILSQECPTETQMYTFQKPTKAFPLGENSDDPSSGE
Description: Fluorescent microscopy uptake of Mini202 in PC-12 cells. Format: cell-based. The method, then: PC-12 cells were purchased and maintained according to the protocols provided by American Type Culture Collection (ATCC, CRL-1721). Among the two variations of PC-12 provided by ATCC, the one displaying loosely adherent (with no PDL coating) and multicell-aggregating phenotype was used. PC-12 cells were grown in RPMI-1640 (Invitrogen, #11875) with 10% horse serum (Invitrogen, #16050-114), 5% fetal bovine serum (FBS) (Atlanta Biologicals), 100 U/ml penicillin (Invitrogen), and 100 μg/ml streptomycin (Invitrogen). […] After 6 days when the cells get ˜70% confluent, the medium was removed by aspiration, and the cells were washed with PBS (2 mL per well). […] Then, the probe uptake was initiated by adding 0.1 mL of experimental media containing Mini202 (220 μM, prepared from 10 mM stock solution in DMSO, final conc.=20 μM in the uptake assay) to the cells. After incubating the cells at 37° C. for 1 hour, the medium was removed by aspiration, and cells were washed with PBS (2 mL per well) and treated with dye-free experimental media. Fluorescence images were taken by using Leica FW 4000 equipped with Chroma custom filter cube (ex=350/50 nm, em=460/50 nm) and Hamamatsu digital camera C4742-95. The fluorescent images and bright field images were acquired for 2000 ms and 37 ms, respectively. […]

Data set [3] can be described thus: Photostability of probe in fluorescence microscopy.
Data set [4] in a line: Two-photon ratiometric pH measurement of secretory vesicles (LDCVs) in PC-12 cells.
For another data set, the system named is VMAT2-HEK cells. Description: Chloroquine-induced Mini202 redistribution in VMAT2-HEK cells. In kind it is cell-based, human. To be noted: chloroquine 300 μM, 3 min, VMAT2-HEK cells labeled with Mini202. How it is done: For the chloroquine-induced Mini202 redistribution experiment, after probe loading and cell washing with PBS, 1 mL of experimental media containing 300 μM chloroquine was added to the cells at RT for 3 minutes, after which time fluorescent images were taken by the same procedure described above.

For another data set, the system named is LDCVs in PC-12 cells. Description: Two-photon ratiometric pH measurement of secretory vesicles (LDCVs) in PC-12 cells. To be noted: PC-12 cells loaded with Mini202, 100 μM methamphetamine, 5 minutes, RT.
Where [5] appears, read: n-octanol/PBS, pH 7.4, n-octanol / PBS pH 7.4, 20 μM probe.
Where [6] appears, read: PBS buffer at different pH values, read-out: pKa.
The mark [7] stands for this setting: n-octanol / PBS pH 7.4, 20 μM probe.

T1 sequence (Q01827 whole entry): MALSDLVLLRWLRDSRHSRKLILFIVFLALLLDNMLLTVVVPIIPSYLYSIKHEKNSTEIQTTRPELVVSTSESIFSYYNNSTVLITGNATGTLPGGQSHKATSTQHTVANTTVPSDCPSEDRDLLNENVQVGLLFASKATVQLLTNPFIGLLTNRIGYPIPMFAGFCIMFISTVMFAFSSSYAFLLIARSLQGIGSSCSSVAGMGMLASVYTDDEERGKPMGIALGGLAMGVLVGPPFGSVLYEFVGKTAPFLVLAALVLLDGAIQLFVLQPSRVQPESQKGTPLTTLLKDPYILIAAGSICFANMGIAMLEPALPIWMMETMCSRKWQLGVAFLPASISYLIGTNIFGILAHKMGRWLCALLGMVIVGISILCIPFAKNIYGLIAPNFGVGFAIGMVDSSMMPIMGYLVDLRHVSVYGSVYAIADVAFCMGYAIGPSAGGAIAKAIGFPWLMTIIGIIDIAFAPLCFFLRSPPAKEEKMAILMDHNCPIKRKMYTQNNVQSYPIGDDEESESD

`NCCc1cc(=O)oc2cc(O)ccc12` [Mini101] gave a logD at 3 days in data set [1] (setting [5]) of -0.94. Moreover, the pKa in data set [2] (setting [6]) came to 7.2; in data set [2] it was 7.24.
In the case of `NCCc1cc(=O)oc2cc(O)c(Cl)cc12` [Mini102], in [1] (setting [5]), the logD at 3 days is -1.45. Besides, the pKa in [2] (setting [6]) was found to be 5.8; in data set [2], 5.77.
The compound `NCCc1cc(=O)oc2cc(O)c(F)cc12` [Mini103] came in with a logD at 3 days in [1] (setting [5]) of -1.98. In addition, in data set [2] (setting [6]), the pKa stood at 5.95.
`CC(C)(C)c1cc2c(CCN)cc(=O)oc2cc1O` [Mini104]: the logD at 3 days in data set [1] (setting [5]) came to 0.89. The “Uptake pattern in screening with VMAT2/HEK and HEK cells” value on VMAT2 is “non-selective uptake”. Moreover, the pKa in [2] (setting [6]) was 7.94.
In [1] (setting [7]), `CC(C)(C)CC(C)(C)c1cc2c(CCN)cc(=O)oc2cc1O` [Mini105] yielded a logD at 3 days of 1.3. Besides, the “Uptake pattern in screening with VMAT2/HEK and HEK cells” value at VMAT2 was “non-selective uptake”. For the same compound, the pKa in data set [2] (setting [6]) came to 8.49.
In the same order, the values of `NCCc1cc(=O)oc2c(Cc3ccccc3)c(O)c(F)cc12` [Mini106] are 0.18, “VMAT2 substrates” and 6.09.
On to `NCCc1cc2ccc(O)cc2oc1=O` [Mini201], for which, in data set [1] (setting [5]), the logD at 3 days was -1.01. Besides, the “Uptake pattern in screening with VMAT2/HEK and HEK cells” value at VMAT2 is listed as “VMAT2 substrates”. Further, in [2] (setting [6]), the pKa came to 7.6.
On to `NCCc1cc2cc(Cl)c(O)cc2oc1=O` [Mini202], for which the “Probe uptake in non-transfected HEK cells” value in the data set with HEK cells is recorded as “No uptake”; in the data set on HEK cells (listed as Mini202.TFA) it was “no uptake”. Further, the “LogD (at pH 7.4)” value in data set [1] (setting [7]) is −1.5 and −1.42. Further, on VMAT2, the “Uptake pattern in screening with VMAT2/HEK and HEK cells” value is “VMAT2 substrates”. The “Probe uptake in VMAT2-HEK cells” value on VMAT2 is on record as “highest uptake; also recorded: punctuate fluorescence patterns”; on VMAT2 (listed as Mini202.TFA) it was “punctuate uptake in a VMAT2-dependent manner; also recorded: fluorescent puncta”. In addition, the “Mini202 uptake / labeling in PC-12 cells” value on VMAT1 (20 μM, 1 h) is reported as “fluorescent puncta; also recorded: VMAT1 substrate”. The Photostability result in [3] was “photostable”. The pKa in [4] came out at 5.93 ± 0.04; in data set [2] (setting [6]), 6.1; in [2] it was 6.06.
Consider `NCCC(=O)c1cc2ccc(O)cc2oc1=O` [Mini301], for which the logD at 3 days in [1] (setting [7]) stood at 0.14. Moreover, the “Uptake pattern in screening with VMAT2/HEK and HEK cells” value at VMAT2 is “no uptake in either cell lines”. In data set [2] (setting [6]), the pKa came to 7.
On to `NCCC(=O)c1cc2cc(Cl)c(O)cc2oc1=O` [Mini302], for which the logD at 3 days in data set [1] (setting [7]) stood at 0.24. In addition, the “Uptake pattern in screening with VMAT2/HEK and HEK cells” value on VMAT2 is “no uptake in either cell lines”. In addition, the pKa in [2] (setting [6]) amounted to 4.68.
In turn, `NCCc1cc2c(ccc3ccc(O)cc32)oc1=O` [Mini401] yielded a logD at 3 days in data set [1] (setting [7]) of 0.86. Also, the “Uptake pattern in screening with VMAT2/HEK and HEK cells” value on VMAT2 is on record as “non-selective uptake”. Further, the pKa in [2] (setting [6]) was 9.36.
Take `CCN(CC)CCCC(C)Nc1ccnc2cc(Cl)ccc12` (centres unmarked) [chloroquine]: the “Redistribution of Mini202 from acidic vesicles” value in the data set with VMAT2-HEK cells is reported as “diffusion of the punctuate fluorescent pattern; also recorded: redistribution of Mini202 from the acidic vesicles to cytosol”.
For the compound `CN[C@@H](C)Cc1ccccc1` [methamphetamine], in the data set on LDCVs in PC-12 cells, the “emission ratio (I760/I692) after drug exposure” value came to 1.19; the “vesicular pH in PC-12 cells after drug exposure” value was 6.36 and 6.4.
For `COC(=O)[C@H]1[C@H]2C[C@@H]3c4[nH]c5cc(OC)ccc5c4CCN3C[C@H]2C[C@@H](OC(=O)c2cc(OC)c(OC)c(OC)c2)[C@@H]1OC` [reserpine, reference compound], the “Effect of VMAT1 inhibitor on Mini202 uptake in PC-12 cells” value on VMAT1 (reserpine 1 μM, 1 h pre-incubation, then 20 μM Mini202 1 h) is listed as “no detectable labeling; also recorded: completely inhibited”.
